This assay has as its system conscious dogs. The assay is described as follows: Gastric emptying of an acaloric liquid test meal delayed by administration of lidamidine, in conscious dogs. The assay is classed as in vivo, beagle dogs. The conditions noted are these: conscious dog; for ΔT/T^b (acceleration of gastric emptying of a liquid meal delayed by lidamidine) / change in vivo at 0.0025 mg/kg: dose 0.0025 mg/kg; for ΔT/T^a (acceleration of gastric emptying of a liquid meal delayed by lidamidine) / change in vivo at 0.01 mg/kg: dose 0.01 mg/kg; for change in vivo at 0.0025 mg/kg / change in vivo at 0.01 mg/kg: Canis lupus familiaris; for change in vivo at 0.0025 mg/kg: read-out: ΔT/T^b (acceleration of gastric emptying of a liquid meal delayed by lidamidine); for change in vivo at 0.01 mg/kg: read-out: ΔT/T^a (acceleration of gastric emptying of a liquid meal delayed by lidamidine). An excerpt: C. Pharmacological Examples C.1. Gastric Emptying of an Acaloric Liquid Test Meal Delayed by Administration of Lidamidine, in Conscious Dogs
Female beagle dogs, weighing 7-14 kg, were trained to stand quietly in Pavlov frames. They were implanted with a gastric cannula under general anesthesia and aseptic precautions. After a medium laparatomy, an incision was made through the gastric wall in the longitudinal direction between the greater and the lesser curve, 2 cm above the nerves of Latarjet. The cannula was secured to the gastric wall by means of a double purse string suture and brought out via a stab wound at the left quadrant of the hypochondrium. Dogs were allowed a recovery period of at least two weeks. Experiments were started after a fasting period of 24 hours, during which water was available ad libitum. At the beginning of the experiment, the cannula was opened in order to remove any gastric juice or food remnants.
The stomach was cleansed with 40 to 50 ml lukewarm water. The test compound was administered I.V. (in a volume ≦3 ml via the vena cephalica), S.C. (in a volume ≦3 ml) or P.O. (in a volume of 1 ml/kg body weight, applied intragastrically via the cannula with a device that filled the lumen of the cannula: after injection of the test compound; 5 ml NaCl 0.9% was injected in order to correct for the dead space in the injection system). Immediately after administration of the test compound or its solvent, lidamidine (0.63 mg/kg was administered subcutaneously. 30 min later, the cannula was opened to determine the amount of fluid present in the stomach, promptly followed by reintroduction of the fluid. Then the test meal was administered via the cannula. This test meal consisted of 250 ml distilled water containing glucose (5 g/l) as a marker. The cannula remained closed for 30 min, whereafter the gastric contents were drained from the stomach to measure total volume (t=30 min). For later analysis 1 ml of the gastric contents was taken, promptly followed by reintroduction of the rest volume into the stomach. This sequence was repeated 4 times with 30 min intervals (t=60, 90, 120, 150 min).
In the 1 ml samples of the gastric contents, the glucose concentrations were measured on a Hitachi 717 automatic analyzer by the hexokinase method (Schmidt, 1961).
Curves were fitted to the measurement points (glucose versus time) using weighed non-linear regression analysis. Gastric emptying was quantified as the time needed to empty 70% of the meal (t 70%). The control emptying time was calculated as the mean t 70% of the last 5 solvent experiments of the same dog. Acceleration of delayed gastric emptying (Δt) was calculated as the time difference between t 70% compound and t 70% solvent. To correct for variations in emptying rate between dogs, Δt was expressed as % of t 70% solvent (Schuurkes et al. 1992)).

[1] abbreviates: compounds, Δt = t 70% compound minus t 70% solvent, relative to t 70% solvent.

Regarding `Nc1c(Cl)cc(C(=O)NC[C@@H]2CCN(CCOCCO)C[C@H]2O)c2c1CCO2` (racemic) [Compound 17], the “ΔT/T^b (acceleration of gastric emptying of a liquid meal delayed by lidamidine)” value is −0.30 under setting [1] and −0.18 (intermediates). The “ΔT/T^a (acceleration of gastric emptying of a liquid meal delayed by lidamidine)” value is, setting by setting: under setting [1], 0.06; (intermediates) −0.28.

On to `CO[C@@H]1CN(CCCC(C)=O)CC[C@H]1CNC(=O)c1cc(Cl)c(N)c2c1OCC2` (relative stereo) [Compound 28, trans-4-amino-5-chloro-2,3-dihydro-N-[[3-methoxy-1-(4-oxopentyl)-4-piperidinyl]methyl]-7-benzofurancarboxamide], for which, under setting [1], the change in vivo at 0.0025 mg/kg is -42% and the change in vivo at 0.01 mg/kg was -56%. `CCCCN1CC[C@@H](CNC(=O)c2cc(Cl)c(N)c3c2OCCO3)[C@@H](O)C1.Cl.O` (relative stereo) [Compound 54]: under setting [1], the “ΔT/T^b (acceleration of gastric emptying of a liquid meal delayed by lidamidine)” value was found to be 0.04 and the “ΔT/T^a (acceleration of gastric emptying of a liquid meal delayed by lidamidine)” value was −0.28. Turning to `CCCCN1CC[C@@H](CNC(=O)c2cc(Cl)c(N)c3c2OCCCO3)[C@H](O)C1.Cl` (relative stereo) [Compound 65], the “ΔT/T^a (acceleration of gastric emptying of a liquid meal delayed by lidamidine)” value under setting [1] is on record as −0.07. `CC(=O)CCCN1CC[C@@H](CNC(=O)c2cc(Cl)c(N)c3c2OCC3)[C@H](O)C1` (relative stereo) [Compound 5, trans-4-amino-5-chloro-2,3-dihydro-N-[[3-hydroxy-1-(4-oxopentyl)-4-piperidinyl]methyl]-7-benzofurancarboxamide]: under setting [1], the change in vivo at 0.0025 mg/kg was -57% and the change in vivo at 0.01 mg/kg was -36%.

For the compound `CC(C)OCCCN1CC[C@@H](CNC(=O)c2cc(Cl)c(N)c3c2OC(C)(C)C3)[C@H](O)C1.O=C(O)/C=C\C(=O)O` (racemic) [Compound 42], the “ΔT/T^a (acceleration of gastric emptying of a liquid meal delayed by lidamidine)” value under setting [1] is reported as −0.12.

Turning to `COCCCN1CC[C@@H](CNC(=O)c2cc(Cl)c(N)c3c2OCC3)[C@H](OC)C1` (relative stereo) [Compound 30, trans-4-amino-5-chloro-2,3-dihydro-N-[[3-methoxy-1-(3-methoxypropyl)-4-piperidinyl]methyl]-7-benzofurancarboxamide], under setting [1], the change in vivo at 0.0025 mg/kg is -55% and the change in vivo at 0.01 mg/kg was -59%. Take `CC(=O)CCCN1CC[C@@H](CNC(=O)c2cc(Cl)c(N)c3c2OC(C)(C)C3)[C@H](O)C1` (racemic) [Compound 49]: under setting [1], the “ΔT/T^b (acceleration of gastric emptying of a liquid meal delayed by lidamidine)” value was −0.19 and the “ΔT/T^a (acceleration of gastric emptying of a liquid meal delayed by lidamidine)” value is −0.28. As for `CCCCN1CC[C@@H](CNC(=O)c2cc(Cl)c(N)c3c2OC(C)(C)C3)[C@H](OC)C1.O=C(O)C(=O)O` (relative stereo) [Compound 51], the “ΔT/T^a (acceleration of gastric emptying of a liquid meal delayed by lidamidine)” value under setting [1] is −0.45.

Turning to `COCCCN1CC[C@@H](CNC(=O)c2cc(Cl)c(N)c3c2OC(C)(C)C3)[C@H](O)C1.O=C(O)C(=O)O` (racemic) [Compound 37], under setting [1], the “ΔT/T^b (acceleration of gastric emptying of a liquid meal delayed by lidamidine)” value is −0.41 and the “ΔT/T^a (acceleration of gastric emptying of a liquid meal delayed by lidamidine)” value was −0.62.

In the case of `CCCCN1CC[C@@H](CNC(=O)c2cc(Cl)c(N)c3c2OCC3)[C@@H](O)C1` (racemic) [Compound 1], under setting [1], the “ΔT/T^b (acceleration of gastric emptying of a liquid meal delayed by lidamidine)” value is −0.23 and the “ΔT/T^a (acceleration of gastric emptying of a liquid meal delayed by lidamidine)” value is given as −0.20. Consider `N#CCCCN1CC[C@@H](CNC(=O)c2cc(Cl)c(N)c3c2OCCC3)[C@H](O)C1` (relative stereo) [Compound 77], for which the “ΔT/T^a (acceleration of gastric emptying of a liquid meal delayed by lidamidine)” value under setting [1] was −0.18. Turning to `CCCCN1CC[C@@H](CNC(=O)c2cc(Cl)c(N)c3c2OCCC3)[C@H](O)C1` (relative stereo) [Compound 78, trans-5-amino-N-[(1-butyl-3-hydroxy-4-piperidinyl)methyl]-6-chloro-3,4-dihydro-2H-1-benzopyran-8-carboxamide], under setting [1], the change in vivo at 0.0025 mg/kg is -33% and the change in vivo at 0.01 mg/kg was -50%. `COCCCN1CC[C@@H](CNC(=O)c2cc(Cl)c(N)c3c2OC(C)(C)C3)[C@H](O)C1` (relative stereo) [Compound 39, trans-(−)-4-amino-5-chloro-2,3-dihydro-N-[[3-hydroxy-1-(3-methoxypropyl)-4-piperidinyl]methyl]-2,2-dimethyl-7-benzofurancarboxamide]: under setting [1], the “ΔT/T^b (acceleration of gastric emptying of a liquid meal delayed by lidamidine)” value was −0.43 and the “ΔT/T^a (acceleration of gastric emptying of a liquid meal delayed by lidamidine)” value was −0.53. On to `CC(=O)CCCN1CC[C@@H](CNC(=O)c2cc(Cl)c(N)c3c2OCCC3)[C@H](O)C1` (relative stereo) [Compound 80], for which, under setting [1], the “ΔT/T^b (acceleration of gastric emptying of a liquid meal delayed by lidamidine)” value is −0.11 and the “ΔT/T^a (acceleration of gastric emptying of a liquid meal delayed by lidamidine)” value is −0.51. As to `CC(C)OCCCN1CC[C@@H](CNC(=O)c2cc(Cl)c(N)c3c2OCC3)[C@H](O)C1` (racemic) [Compound 19], under setting [1], the “ΔT/T^b (acceleration of gastric emptying of a liquid meal delayed by lidamidine)” value is on record as −0.30 and the “ΔT/T^a (acceleration of gastric emptying of a liquid meal delayed by lidamidine)” value was −0.78. As to `CC(=O)CCCN1CC[C@@H](CNC(=O)c2cc(Cl)c(N)c3c2OCCO3)[C@@H](O)C1` (relative stereo) [Compound 58], under setting [1], the “ΔT/T^b (acceleration of gastric emptying of a liquid meal delayed by lidamidine)” value is given as −0.20 and the “ΔT/T^a (acceleration of gastric emptying of a liquid meal delayed by lidamidine)” value is given as 0.09. For the compound `N#CCCCN1CC[C@@H](CNC(=O)c2cc(Cl)c(N)c3c2OCC3)[C@H](O)C1` (racemic) [Compound 18], under setting [1], the “ΔT/T^b (acceleration of gastric emptying of a liquid meal delayed by lidamidine)” value is on record as −0.47 and the “ΔT/T^a (acceleration of gastric emptying of a liquid meal delayed by lidamidine)” value was −0.57. Consider `CCCCN1CC[C@@H](CNC(=O)c2cc(Cl)c(N)c3c2OC(C)(C)C3)[C@H](O)C1` (racemic) [Compound 36], for which the “ΔT/T^a (acceleration of gastric emptying of a liquid meal delayed by lidamidine)” value under setting [1] is given as −0.01. For `CC(=O)CCCN1CC[C@H](CNC(=O)c2cc(Cl)c(N)c3c2OCC3)[C@H](O)C1` (relative stereo) [Compound 4, (cis)-4-amino-5-chloro-2,3-dihydro-N-[[3-hydroxy-1-(4-oxopentyl)-4-piperidinyl]methyl]-7-benzofurancarboxamide], under setting [1], the change in vivo at 0.0025 mg/kg was -21% and the change in vivo at 0.01 mg/kg is -8%. As to `CCCCN1CC[C@@H](CNC(=O)c2cc(Cl)c(N)c3c2OCCO3)[C@H](O)C1` (relative stereo) [Compound 55, (trans)-8-amino-N-[(1-butyl-3-hydroxy-4-piperidinyl)methyl]-7-chloro-2,3-dihydro-1,4-benzodioxin-5-carboxamide], under setting [1], the change in vivo at 0.0025 mg/kg is -18% and the change in vivo at 0.01 mg/kg was -29%. For `CC(=O)CCCN1CCC(O)(CNC(=O)c2cc(Cl)c(N)c3c2OC(C)(C)C3)CC1` [Compound 93], the “ΔT/T^a (acceleration of gastric emptying of a liquid meal delayed by lidamidine)” value under setting [1] is listed as −0.03. As to `COCCCN1CCC(O)(CNC(=O)c2cc(Cl)c(N)c3c2OC(C)(C)C3)CC1` [Compound 86], under setting [1], the “ΔT/T^b (acceleration of gastric emptying of a liquid meal delayed by lidamidine)” value is listed as −0.33 and the “ΔT/T^a (acceleration of gastric emptying of a liquid meal delayed by lidamidine)” value is −0.47.

For `CO[C@@H]1CN(CCCC(C)=O)CC[C@H]1CNC(=O)c1cc(Cl)c(N)c2c1OC(C)(C)C2.O=C(O)C(=O)O` (relative stereo) [Compound 52], the “ΔT/T^a (acceleration of gastric emptying of a liquid meal delayed by lidamidine)” value under setting [1] was −0.18.

As to “(cis)-4-amino-5-chloro-2,3-dihydro-N-[[3-hydroxy-1-[3-(2-methyl-1,3-dioxolan-2-yl)propyl-]4-piperidinyl]methyl]-7-benzofurancarboxamide [Compound 7]”, under setting [1], the “ΔT/T^b (acceleration of gastric emptying of a liquid meal delayed by lidamidine)” value was −0.07 and the “ΔT/T^a (acceleration of gastric emptying of a liquid meal delayed by lidamidine)” value amounted to 0.11. As for `CCCCN1CC[C@@H](CNC(=O)c2cc(Cl)c(N)c3c2OCC3)[C@H](O)C1` (relative stereo) [Compound 2, trans-4-amino-N-[(1-butyl-3-hydroxy-4-piperidinyl)methyl]-5-chloro-2,3-dihydro-7-benzofurancarboxamide], under setting [1], the change in vivo at 0.0025 mg/kg was -61% and the change in vivo at 0.01 mg/kg is -34%.

For the origin of these results see patent USRE40793E1, “Bicyclic benzamides of 3-or 4-substituted 4-(aminomethyl)-piperidine derivatives” (Janssen Pharmaceutica, N.V., priority 1997, dated 2009).
